Test results as given in ChEMBL document CHEMBL5120794, “Development of 5-hydroxyl-1-azabenzanthrone derivatives as dual binding site and selective acetylcholinesterase inhibitors” (Eur J Med Chem, 2022).
Calls of active or inactive are those of the source. No cut-off for these calls is given here.

Legend:
PC-12 = test: Cytoprotective activity against H2O2-induced oxidative damage in rat PC-12 cells assessed as cell viability at 1 uM preincubated for 4 hrs followed by H2O2 treatment for another 24 hrs by MTT assay; type: functional, cell-based; conditions: time 28.0 hrs
Acetylcholinesterase = Acetylcholinesterase (Electrophorus electricus, UniProt O42275); test: Inhibition of Electrophorus electricus AchE using […] as substrate incubated for 10 mins followed by substrate addition measured at 0 to 180 secs by Ellman's method
Sequence of Acetylcholinesterase (O42275 whole entry): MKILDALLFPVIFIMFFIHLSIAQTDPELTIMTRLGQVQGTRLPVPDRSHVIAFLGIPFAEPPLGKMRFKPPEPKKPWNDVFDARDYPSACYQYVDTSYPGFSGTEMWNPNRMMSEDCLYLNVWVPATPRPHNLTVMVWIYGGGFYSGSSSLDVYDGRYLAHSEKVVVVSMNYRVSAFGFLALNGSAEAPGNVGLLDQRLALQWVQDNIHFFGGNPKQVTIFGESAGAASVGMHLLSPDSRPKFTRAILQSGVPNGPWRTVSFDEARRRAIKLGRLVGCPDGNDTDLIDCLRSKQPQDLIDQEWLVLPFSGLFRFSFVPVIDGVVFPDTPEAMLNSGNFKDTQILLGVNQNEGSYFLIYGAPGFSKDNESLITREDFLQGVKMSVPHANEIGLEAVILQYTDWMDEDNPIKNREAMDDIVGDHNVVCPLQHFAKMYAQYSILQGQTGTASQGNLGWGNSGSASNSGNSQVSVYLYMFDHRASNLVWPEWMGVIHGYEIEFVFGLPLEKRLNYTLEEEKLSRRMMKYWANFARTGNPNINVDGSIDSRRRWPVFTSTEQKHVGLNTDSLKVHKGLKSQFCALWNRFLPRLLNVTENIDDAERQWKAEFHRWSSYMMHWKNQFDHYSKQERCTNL

Cholinesterase = Cholinesterase (Equus caballus, UniProt P81908)
Sequence of Cholinesterase (P81908 whole entry): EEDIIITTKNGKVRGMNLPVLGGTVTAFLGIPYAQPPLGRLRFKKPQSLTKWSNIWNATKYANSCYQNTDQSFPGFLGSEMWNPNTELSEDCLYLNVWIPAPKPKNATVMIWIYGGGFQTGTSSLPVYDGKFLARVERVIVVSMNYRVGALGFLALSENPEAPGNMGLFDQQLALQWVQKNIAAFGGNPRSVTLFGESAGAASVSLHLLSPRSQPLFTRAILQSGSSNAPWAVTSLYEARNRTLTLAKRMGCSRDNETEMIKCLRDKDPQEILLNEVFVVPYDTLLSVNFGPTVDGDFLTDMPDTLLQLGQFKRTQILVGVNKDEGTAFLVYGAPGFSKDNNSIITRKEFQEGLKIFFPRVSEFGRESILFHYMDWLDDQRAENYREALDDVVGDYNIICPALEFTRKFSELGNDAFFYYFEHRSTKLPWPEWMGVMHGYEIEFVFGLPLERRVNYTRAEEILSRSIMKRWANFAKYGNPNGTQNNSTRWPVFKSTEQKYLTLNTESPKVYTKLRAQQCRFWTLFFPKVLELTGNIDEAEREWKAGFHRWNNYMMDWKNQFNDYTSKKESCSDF
Description: Inhibition of equine serum BchE using S-butyryl thiocholine iodide as substrate incubated for 10 mins followed by substrate addition measured at 0 to 180 secs by Ellman's method

[1] = molecular target: Amyloid-beta precursor protein (Homo sapiens) (UniProt P05067); test: Inhibition of amyloid beta (1 to 42) (unknown origin) self-induced aggregation at 25 uM measured after 46 to 48 hrs by Thioflavin binding assay relative to control; conditions: time 46-48 hrs
Sequence of Amyloid-beta precursor protein (Homo sapiens) (P05067 whole entry): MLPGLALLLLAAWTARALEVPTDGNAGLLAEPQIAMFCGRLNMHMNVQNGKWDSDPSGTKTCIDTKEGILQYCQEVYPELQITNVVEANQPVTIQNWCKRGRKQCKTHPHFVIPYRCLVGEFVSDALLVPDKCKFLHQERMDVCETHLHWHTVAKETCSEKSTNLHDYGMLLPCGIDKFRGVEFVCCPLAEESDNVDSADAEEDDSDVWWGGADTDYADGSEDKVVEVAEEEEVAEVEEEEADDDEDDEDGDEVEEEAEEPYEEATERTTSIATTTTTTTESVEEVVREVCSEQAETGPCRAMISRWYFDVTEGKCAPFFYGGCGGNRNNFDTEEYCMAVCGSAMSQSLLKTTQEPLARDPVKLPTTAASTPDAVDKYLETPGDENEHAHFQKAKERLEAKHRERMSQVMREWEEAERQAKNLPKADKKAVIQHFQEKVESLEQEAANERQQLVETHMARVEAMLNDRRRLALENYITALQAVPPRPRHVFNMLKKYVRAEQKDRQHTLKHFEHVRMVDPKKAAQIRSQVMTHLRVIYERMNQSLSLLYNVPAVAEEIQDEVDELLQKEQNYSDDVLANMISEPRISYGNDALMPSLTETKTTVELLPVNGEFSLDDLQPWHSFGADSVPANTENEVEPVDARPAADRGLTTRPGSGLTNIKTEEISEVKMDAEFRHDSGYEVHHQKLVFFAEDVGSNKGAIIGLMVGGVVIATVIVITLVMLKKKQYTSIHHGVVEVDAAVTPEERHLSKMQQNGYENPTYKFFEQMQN

Row | Compound | Activity (PC-12) | IC50 (Acetylcholinesterase) | IC50 (Cholinesterase) | inhibition [1]
1 | CN1CCN(CCOc2cc3c4c(nccc4c2)-c2ccccc2C3=O)CC1 | Active | 860 nM | > 100000 nM | 18.5%
2 | O=C1c2ccccc2-c2nccc3cc(OCCCCN4CCN(CCO)CC4)cc1c23 | Active | 920 nM | > 100000 nM | 26.1%
3 | O=C1c2ccccc2-c2nccc3cc(OCCCN4CCN(CCO)CC4)cc1c23 | Active | 190 nM | > 100000 nM | 9.7%
4 | O=C1c2ccccc2-c2nccc3cc(OCCCN4CCCCC4)cc1c23 | Active | 140 nM | 35300 nM | 41.2%
